Source: patent US20090124539A1, “Methods of treating infection” (priority 2007, published 2009)
Converted amounts (≈) assume the structure as drawn.

How the values were obtained:
Streptococcus pneumoniae = assay: MIC, broth microdilution (CLSI); assay type: cell-based; conditions: Streptococcus pneumoniae
Experimental: (§1) The solvent for all of the compounds was deionized water (DIW), and all of the compounds dissolved in the solvent. The stock solutions were allowed to stand in DIW for one hour at room temperature prior to testing to allow time for auto-sterilization.
(§2) The test organisms were originally received from clinical sources, or from the American Type Culture Collection. When received, the organisms were sub-cultured onto an appropriate agar medium. Following incubation, colonies were harvested from these plates and cell suspensions prepared and frozen at −80° C. On the day prior to assay, a frozen vial of each culture was thawed and the contents were streaked for isolation onto either Tryptic Soy Agar (Becton Dickinson, Sparks, Md.) or Tryptic Soy Agar (Enhanced Hemolysis; Becton Dickinson) supplemented with 5% sheep blood for streptococci. The agar plates were incubated overnight at 35° C. Staphylococcus aureus ATCC 29213 and Enterococcus faecalis ATCC 29212 were included as quality control isolates in the assay.
(§3) The test medium for the broth microdilution testing was Mueller Hinton II broth (MHB II; BBL# 212322, Lot # 6024003, Becton Dickinson). The broth was prepared at 1.05× normal weight/volume to offset the 5% volume of the drug solution in the final test plates.
For streptococci, lysed horse blood (Lot # H88621; Cleveland Scientific, Bath, Ohio) was added to the MHB II at a final concentration of 2%. […]
(§4) MIC values were determined using a broth microdilution method as recommended by the Clinical and Laboratory Standards Institute (Clinical and Laboratory Standards Institute^a. Methods for Dilution Antimicrobial Susceptibility Tests for Bacteria That Grow Aerobically; Approved Standard-Seventh Edition. Clinical and Laboratory Standards Institute document M7-A7 [ISBN 1-56238-587-9]. Clinical and Laboratory Standards Institute, 940 West Valley Road, Suite 1400, Wayne, Pa. 19087-1898 USA, 2006). Automated liquid handlers (Multidrop 384, Labsystems, Helsinki, Finland; Biomek 2000 and Multimek 96, Beckman Coulter, Fullerton Calif.) were used to conduct serial dilutions and make liquid transfers.
(§5) Wells of two standard 96-well microdilution plates (Falcon 3918; Becton Dickinson) were filled with 150 μL of […] using the Multidrop 384. These plates were used to prepare the drug “mother plates” that provided the serial drug dilutions for replicate “daughter plates”. The Biomek 2000 was used to transfer 150 μl of each stock solution from the wells of column 1 of a deep well plate to the corresponding wells in column 1 of the mother plate and to make eleven 2-fold serial dilutions in the mother plates. The wells of column 12 contained no drug and were the organism growth control wells. Each mother plate has the capacity to create a total of 12 daughter plates.
(§6) The daughter plates were loaded with 180 μL of one of the media described above using the Multidrop 384. The wells of the daughter plates ultimately contained 180 μL of MHB II, 10 μL of drug solution, and 10 μL of bacterial inoculum prepared in broth appropriate to the test organism (1.05×). The daughter plates were prepared on the Multimek 96 instrument, which transferred 10 μL of drug solution from each well of the mother plate to each corresponding well of each daughter plate in a single step.
Standardized inoculum of each organism was prepared following Clinical and Laboratory Standards Institute (Clinical and Laboratory Standards Institute^b. Performance Standards for Antimicrobial Susceptibility Testing; Sixteenth Informational Supplement. CLSI document M100-S16 [ISBN 1-56238-588-7]. Clinical and Laboratory Standards Institute, 940 West Valley Road, Suite 1400, Wayne, Pa. 19087-1898 USA, 2006) methods. The inoculum for each organism was dispensed into sterile reservoirs divided by length (Beckman Coulter), and the Biomek 2000 was used to inoculate the plates. […]

Enterococcus faecalis [1] = conditions: quality control range for Enterococcus faecalis ATCC 29212 (# 101); cited from earlier work
Enterococcus faecalis [2] = assay: MIC, broth microdilution (CLSI); assay type: cell-based; conditions: Enterococcus faecalis
Experimental: as §1, §2, §3
(§7) CLSI guidelines recommend that Mueller-Hinton II broth be adjusted to contain 50 mg/L of Ca^++ ions for proper daptomycin MIC results. Since Mueller-Hinton II broth has already been adjusted by the manufacturer to contain approximately 25 mg/L of Ca^++ ions, an additional 25 mg/L of Ca^++ ions was adjusted with 10 mg/mL of CaCl2.2H2O (Lot# 084K0215; Sigma-Aldrich) added at a rate of 0.1 mL/L of broth, for each desired increment of 1 mg/L. This supplemented Mueller-Hinton II broth was used only in wells containing daptomycin.
as §4, §5
as §6, with “step. […]” for “step.”

[3] = tested on: Staphylococcus epidermidis; assay: MIC, broth microdilution (CLSI); assay type: cell-based; conditions: Staphylococcus epidermidis
Experimental: as §1, §2, §3, §7, §4, §5
as §6, with “step. […]” for “step.”

Enterococcus faecium = assay: MIC, broth microdilution (CLSI); assay type: cell-based; conditions: Enterococcus faecium
Experimental: (§8) The stock solutions were allowed to stand in DIW for one hour at room temperature prior to testing to allow time for auto-sterilization.
as §2, §3, §7, §4, §5, §6

Staphylococcus aureus [4] = assay: MIC, broth microdilution (CLSI); assay type: cell-based; conditions: Staphylococcus aureus
Experimental: as §8, §2, §3, §7, §4, §5, §6

Staphylococcus aureus [5] = conditions: quality control range for Staphylococcus aureus ATCC 29213 (# 100); cited from earlier work
Streptococcus pyogenes = assay: MIC, broth microdilution (CLSI); assay type: cell-based
Experimental: as §1, §2, §3
For streptococci, lysed horse blood (Lot # H88621; Cleveland Scientific, Bath, Ohio) was added to the MHB II at a final concentration of 2%.
as §7, §4, §5
as §6, with “step. […]” for “step.”

Structure (SMILES): CN[C@H](CC(C)C)C(=O)N[C@H]1C(=O)N[C@@H](CC(N)=O)C(=O)N[C@H]2C(=O)N[C@H]3C(=O)N[C@H](C(=O)N[C@H](C(=O)O)c4cc(O)cc(O)c4-c4cc3ccc4O)[C@H](O)c3ccc(c(Cl)c3)Oc3cc2cc(c3O[C@@H]2O[C@H](CO)[C@@H](O)[C@H](O)[C@H]2O[C@H]2C[C@](C)(N)[C@H](O)[C@H](C)O2)Oc2ccc(cc2Cl)[C@H]1O [Vancomycin, vancomycin]
- MIC (Streptococcus pneumoniae; Streptococcus pneumoniae Micromyx # 374, Wild type): 0.5 µg/mL (≈ 0.345 µM)
- MIC (Streptococcus pneumoniae; Streptococcus pneumoniae Micromyx # 375, parC, gyrB): 0.5 µg/mL (≈ 0.345 µM)
- MIC (Streptococcus pneumoniae; Streptococcus pneumoniae Micromyx # 376, parC, gyrA): 0.25 µg/mL (≈ 0.173 µM)
- MIC (Streptococcus pneumoniae; Streptococcus pneumoniae Micromyx # 379, parC, gyrA, gyrB): 0.5 µg/mL (≈ 0.345 µM)
- MIC (Streptococcus pneumoniae; Streptococcus pneumoniae Micromyx # 927, mef(A)): 0.5 µg/mL (≈ 0.345 µM)
- MIC (Streptococcus pneumoniae; Streptococcus pneumoniae Micromyx # 928, erm(B)): 0.5 µg/mL (≈ 0.345 µM)
- MIC, CLSI Recommended Range (Enterococcus faecalis [1]): 1 to 4 µg/mL
- MIC (Enterococcus faecalis [2]; ATCC29212, Enterococcus faecalis Micromyx # 101, VSE, CLSI QC strain (ATCC 29212)): 4 µg/mL (≈ 2.76 µM)
- MIC (Enterococcus faecalis [2]; Enterococcus faecalis Micromyx # 413, LZD^R from res. dev. or other): 2 µg/mL (≈ 1.38 µM)
- MIC (Enterococcus faecalis [2]; Enterococcus faecalis Micromyx # 486, Van A): > 128 µg/mL
- MIC (Enterococcus faecalis [2]; Enterococcus faecalis Micromyx # 1088, Van B): 128 µg/mL (≈ 88.3 µM)
- MIC [3]: 2 µg/mL (≈ 1.38 µM)
- MIC ([3]; MRSE): 4 µg/mL (≈ 2.76 µM)
- MIC (Enterococcus faecium; Enterococcus faecium Micromyx # 750, Van^S): 1 µg/mL (≈ 0.69 µM)
- MIC (Enterococcus faecium; Enterococcus faecium Micromyx # 752, Van A): > 128 µg/mL
- MIC (Enterococcus faecium; Enterococcus faecium Micromyx # 1120, Van B): 32 µg/mL (≈ 22.1 µM)
- MIC (Enterococcus faecium; Enterococcus faecium Micromyx # 1721, DAP^R): > 128 µg/mL
- MIC (Staphylococcus aureus [4]; ATCC 29213 / MSSA, Staphylococcus aureus Micromyx # 100, MSSA, CLSI QC strain (ATCC 29213)): 2 µg/mL (≈ 1.38 µM)
- MIC (Staphylococcus aureus [4]; MRSA, Staphylococcus aureus Micromyx # 1004, MRSA, FA^R): 1 µg/mL (≈ 0.69 µM)
- MIC (Staphylococcus aureus [4]; MRSA, Staphylococcus aureus Micromyx # 1730, Community-acquired MRSA): 2 µg/mL (≈ 1.38 µM)
- MIC (Staphylococcus aureus [4]; MSSA, Staphylococcus aureus Micromyx # 1002, MSSA, macrolide^R): 1 µg/mL (≈ 0.69 µM)
- MIC (Staphylococcus aureus [4]; Staphylococcus aureus Micromyx # 106, RA^R): 1 µg/mL (≈ 0.69 µM)
- MIC (Staphylococcus aureus [4]; Staphylococcus aureus Micromyx # 1016, FA^R): 1 µg/mL (≈ 0.69 µM)
- MIC (Staphylococcus aureus [4]; Staphylococcus aureus Micromyx # 1651, LZD^R clinical isolate): 1 µg/mL (≈ 0.69 µM)
- MIC (Staphylococcus aureus [4]; Staphylococcus aureus Micromyx # 1727, GM^R): 1 µg/mL (≈ 0.69 µM)
- MIC (Staphylococcus aureus [4]; Staphylococcus aureus Micromyx # 1731, CHL^R): 1 µg/mL (≈ 0.69 µM)
- MIC (Staphylococcus aureus [4]; VISA, Staphylococcus aureus Micromyx # 1723, VISA): 8 µg/mL (≈ 5.52 µM)
- MIC, CLSI Recommended Range (Staphylococcus aureus [5]): 0.5 to 2 µg/mL
- MIC (Streptococcus pyogenes; Streptococcus pyogenes): 0.5 µg/mL (≈ 0.345 µM)
- MIC (Streptococcus pyogenes; Streptococcus pyogenes Micromyx # 942, macrolide^R): 0.5 µg/mL (≈ 0.345 µM)
